Source: ChEMBL document CHEMBL1141318, “Cytotoxic lignans from the stem bark of Magnolia officinalis” (J Nat Prod, 2007)
In brackets after ≈: the same amount, converted by molar mass.

Tests used:
Format in all cases: functional, cell-based
[1] = system: A549; assay: Cytotoxicity against human A549 cells by MTT assay
[2] = system: HeLa; assay: Cytotoxicity against human HeLa cells by MTT assay
[3] = system: K562; assay: Cytotoxicity against human K562 cells by MTT assay

Structure (SMILES) | IC50 [1] [µg/mL] | IC50 [2] [µg/mL] | IC50 [3] [µg/mL]
C=CCc1cc(-c2cc(C=O)ccc2O)ccc1O [MAGNALEDEHYDE E] | > 5 | > 5 | > 5
COc1cccc2c1C(=O)c1c(O)c3c(c(O)c1C2=O)C[C@@](O)(C(=O)CO)C[C@@H]3O[C@H]1C[C@H](N)[C@H](O)[C@H](C)O1 [DOXORUBICIN] | 1.2 (≈ 2.21 µM) | 0.8 (≈ 1.47 µM) | 1.41 (≈ 2.59 µM)
C=CCc1cc(-c2cc(CC(O)CO)ccc2O)ccc1O (stereo unspecified) [MAGNOLIGNAN] | > 5 | > 5 | > 5
C=CCc1cc(-c2cc(/C=C/C=O)ccc2O)ccc1O [MAGNALEDEHYDE B] | > 5 | > 5 | > 5
C=CCc1ccc(O)c(-c2cc(CC=C)ccc2O)c1 [MAGNOLOL] | > 5 | > 5 | > 5
COc1ccc(-c2cc(/C=C/C=O)ccc2O)cc1/C=C/C=O | 1.5 (≈ 4.86 µM) | 3.9 (≈ 12.6 µM) | 3.7 (≈ 12 µM)
C=CCc1cc(-c2cc(/C=C/C=O)ccc2O)ccc1OC [4'-METHOXYMAGNALEDEHYDE B] | > 5 | > 5 | > 5
C=CCc1cc(-c2cc(C=O)ccc2O)ccc1OC | > 5 | > 5 | > 5
COc1cc(/C=C/CO)cc(OC)c1O[C@@H]1O[C@H](CO)[C@@H](O)[C@H](O)[C@H]1O [SYRINGIN] | > 5 | > 5 | > 5
COc1cc(/C=C/C=O)cc(OC)c1O[C@@H]1O[C@H](CO)[C@@H](O)[C@H](O)[C@H]1O [SINAPALDEHYDE GLUCOSIDE] | > 5 | > 5 | > 5
C=CCc1ccc(O)c(-c2ccc(O)c(CC=C)c2)c1 [HONOKIOL] | > 5 | > 5 | > 5
C=CCc1ccc(O)c(-c2ccc(OC)c(CC=C)c2)c1 [METHYLHONOKIOL] | > 5 | > 5 | > 5
